Data from patent US12599672B2, “KRAS proteolysis targeting chimeras” (PAQ Therapeutics Inc., priority 2023, dated 2026).

Legend:
Type in all cases: cell-based
[1] = target: T1, KRAS G12D (Homo sapiens, UniProt P01116, G12D); assay: KRAS G12D HiBit assay; conditions: AsPc-1-KRAS (G12D)-HiBit-KI cell, compound treatment for 24 hours, absolute DC50; class symbols
T1 construct: AsPc-1-KRAS (G12D)-HiBit-KI cell (Pharmaron); host or cells: AsPc-1-KRAS (G12D)-HiBit-KI cells (HiBiT knock-in at the endogenous KRAS locus)
T1 sequence (P01116 1-188 isoform P01116-2 G12D): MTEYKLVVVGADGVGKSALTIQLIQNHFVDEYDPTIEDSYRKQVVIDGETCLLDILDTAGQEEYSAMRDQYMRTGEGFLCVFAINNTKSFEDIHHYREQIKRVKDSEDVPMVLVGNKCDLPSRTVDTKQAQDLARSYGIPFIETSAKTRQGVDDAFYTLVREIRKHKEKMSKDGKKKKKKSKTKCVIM
Procedure, shortened: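 Cells were treated for 24 h with compounds in a 3-fold, 10-point dilution series from a 0.3 mM DMSO stock, then equilibrated 15 min at room temperature. KRAS G12D HiBiT levels were read by luminescence after lytic Nano-Glo HiBiT reagent with LgBiT; inhibition calculated relative to 0.1% DMSO high control.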

[2] = target: T2, KRAS (Homo sapiens, UniProt P01116); assay: KRASamp MSD assay; conditions: KE39 (KRAS amplified) cells, treated with test compounds for 24 hr, MSD readout of KRAS degradation
T2 construct: endogenous in cells; host or cells: KE39 (KRAS amplified) cells
T2 sequence (P01116 1-188 isoform P01116-2): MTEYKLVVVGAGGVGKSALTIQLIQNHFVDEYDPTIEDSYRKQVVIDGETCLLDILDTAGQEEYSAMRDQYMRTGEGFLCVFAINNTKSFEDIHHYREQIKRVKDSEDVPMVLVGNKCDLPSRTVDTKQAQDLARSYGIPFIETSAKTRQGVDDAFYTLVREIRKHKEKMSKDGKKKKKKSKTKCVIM
Procedure, shortened: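 KRAS-amplified KE39 cells treated with compound for 24 hr, then lysed in RIPA buffer with protease/phosphatase inhibitors. KRAS protein measured by MSD sandwich immunoassay against a recombinant WT KRAS standard curve; DC50 derived from curve fitting of degradation.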

[3] = target: T3, KRAS G12V (Homo sapiens, UniProt P01116, G12V); assay: KRAS G12V HiBit assay; conditions: SW620-KRAS (G12V)-HiBit-KI cells, compound treatment for 24 hours, class symbols
T3 construct: SW620-KRAS (G12V)-HiBit-KI cell (Pharmaron); host or cells: SW620-KRAS (G12V)-HiBit-KI cells (HiBiT knock-in at the endogenous KRAS locus)
T3 sequence (P01116 1-188 isoform P01116-2 G12V): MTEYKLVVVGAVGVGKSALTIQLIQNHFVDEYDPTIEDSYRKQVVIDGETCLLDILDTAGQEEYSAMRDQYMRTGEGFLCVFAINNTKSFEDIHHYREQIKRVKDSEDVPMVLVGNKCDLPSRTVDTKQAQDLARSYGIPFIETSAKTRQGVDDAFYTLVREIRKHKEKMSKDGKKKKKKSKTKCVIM
Procedure, shortened: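 HiBiT-tagged KRAS G12V cells treated 24 h with compound in a 3-fold, 10-point series (0.3 mM DMSO stock); lytic HiBiT reagent with LgBiT added after 15 min room-temperature equilibration. Degradation calculated against 0.1% DMSO high control.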

Compound	DC50 [1]	DC50 [2]	DC50 [3]
CCc1c(F)ccc2cc(O)cc(-c3ncc4c(N5CCC[C@@](C)(O)C5)nc(OC[C@@]56CCCN5[C@H](COC(=O)N5CCC7(CC5)CC(CN5CCC(c8ccc9c(c8)n(C)c(=O)n9C8CCC(=O)NC8=O)CC5)C7)CC6)nc4c3F)c12 (stereo partly drawn) [Compound 417, ((3S,7aS)-7a-(((7-(8-ethyl-7-fluoro-3-hydroxynaphthalen-1-yl)-8-fluoro-4-((R)-3-hydroxy-3-methylpiperidin-1-yl)pyrido[4,3-d]pyrimidin-2-yl)oxy)methyl)hexahydro-1H-pyrrolizin-3-yl)methyl 2-((4-(1-(2,6-dioxopiperidin-3-yl)-3-methyl-2-oxo-2,3-dihydro-1H-benzo[d]imidazol-5-yl)piperidin-1-yl)methyl)-7-azaspiro[3.5]nonane-7-carboxylate]	< 100 nM	< 1 nM	< 10 nM
C#Cc1c(F)ccc2cc(O)cc(-c3ncc4c(N5CCC[C@@](C)(O)C5)nc(OC[C@@]56CCCN5[C@H](COC(=O)N5CC7(CC(CN8CCC(c9ccc%10c(c9)n(C)c(=O)n%10C9CCC(=O)NC9=O)CC8)C7)C5)CC6)nc4c3F)c12 (stereo partly drawn) [Compound 418, ((3S,7aS)-7a-(((7-(8-ethynyl-7-fluoro-3-hydroxynaphthalen-1-yl)-8-fluoro-4-((R)-3-hydroxy-3-methylpiperidin-1-yl)pyrido[4,3-d]pyrimidin-2-yl)oxy)methyl)hexahydro-1H-pyrrolizin-3-yl)methyl 6-((4-(1-(2,6-dioxopiperidin-3-yl)-3-methyl-2-oxo-2,3-dihydro-1H-benzo[d]imidazol-5-yl)piperidin-1-yl)methyl)-2-azaspiro[3.3]heptane-2-carboxylate]	< 100 nM	1 to 10 nM	< 10 nM
C#Cc1c(F)ccc2cc(O)cc(-c3ncc4c(N5CCC[C@@](C)(O)C5)nc(OC[C@@]56CCCN5[C@H](COC(=O)N5CC7(CC(N8CCC(c9ccc%10c(c9)n(C)c(=O)n%10C9CCC(=O)NC9=O)CC8)C7)C5)CC6)nc4c3F)c12 (stereo partly drawn) [Compound 419, ((3S,7aS)-7a-(((7-(8-ethynyl-7-fluoro-3-hydroxynaphthalen-1-yl)-8-fluoro-4-((R)-3-hydroxy-3-methylpiperidin-1-yl)pyrido[4,3-d]pyrimidin-2-yl)oxy)methyl)hexahydro-1H-pyrrolizin-3-yl)methyl 6-(4-(1-(2,6-dioxopiperidin-3-yl)-3-methyl-2-oxo-2,3-dihydro-1H-benzo[d]imidazol-5-yl)piperidin-1-yl)-2-azaspiro[3.3]heptane-2-carboxylate]	< 100 nM	< 1 nM	< 10 nM
C#Cc1c(F)ccc2cc(O)cc(-c3ncc4c(N5CCC[C@@](C)(O)C5)nc(OC[C@@]56CCCN5[C@H](COC(=O)N5CC7(CCC(N8CCC(c9ccc%10c(c9)n(C)c(=O)n%10C9CCC(=O)NC9=O)CC8)CC7)C5)CC6)nc4c3F)c12 (stereo partly drawn) [Compound 420, ((3S,7aS)-7a-(((7-(8-ethynyl-7-fluoro-3-hydroxynaphthalen-1-yl)-8-fluoro-4-((R)-3-hydroxy-3-methylpiperidin-1-yl)pyrido[4,3-d]pyrimidin-2-yl)oxy)methyl)hexahydro-1H-pyrrolizin-3-yl)methyl 7-(4-(1-(2,6-dioxopiperidin-3-yl)-3-methyl-2-oxo-2,3-dihydro-1H-benzo[d]imidazol-5-yl)piperidin-1-yl)-2-azaspiro[3.5]nonane-2-carboxylate]	< 100 nM	1 to 10 nM	10 to 100 nM
C#Cc1c(F)ccc2cc(O)cc(-c3ncc4c(N5CCC[C@@](C)(O)C5)nc(OC[C@@]56CCCN5[C@H](COC(=O)N5CC7(CCC(CN8CCC(c9ccc%10c(c9)n(C)c(=O)n%10C9CCC(=O)NC9=O)CC8)CC7)C5)CC6)nc4c3F)c12 (stereo partly drawn) [Compound 421, ((3S,7aS)-7a-(((7-(8-ethynyl-7-fluoro-3-hydroxynaphthalen-1-yl)-8-fluoro-4-((R)-3-hydroxy-3-methylpiperidin-1-yl)pyrido[4,3-d]pyrimidin-2-yl)oxy)methyl)hexahydro-1H-pyrrolizin-3-yl)methyl 7-((4-(1-(2,6-dioxopiperidin-3-yl)-3-methyl-2-oxo-2,3-dihydro-1H-benzo[d]imidazol-5-yl)piperidin-1-yl)methyl)-2-azaspiro[3.5]nonane-2-carboxylate]	< 100 nM	< 1 nM	< 10 nM

More lines, now with the values ahead:

DC50 [1]	DC50 [2]	DC50 [3]	Compound
< 100 nM	< 1 nM	< 10 nM	CCc1c(F)ccc2cc(O)cc(-c3ncc4c(N5CCCOCC5)nc(OC[C@@]56CCCN5[C@H](COC(=O)N5CCC(CN7CCC(c8ccc9c(c8)n(C)c(=O)n9C8CCC(=O)NC8=O)CC7)CC5)CC6)nc4c3F)c12 (stereo partly drawn) [Compound 422, ((3S,7aS)-7a-(((7-(8-ethyl-7-fluoro-3-hydroxynaphthalen-1-yl)-8-fluoro-4-(1,4-oxazepan-4-yl)pyrido[4,3-d]pyrimidin-2-yl)oxy)methyl)hexahydro-1H-pyrrolizin-3-yl)methyl 4-((4-(1-(2,6-dioxopiperidin-3-yl)-3-methyl-2-oxo-2,3-dihydro-1H-benzo[d]imidazol-5-yl)piperidin-1-yl)methyl)piperidine-1-carboxylate]
< 100 nM	< 1 nM	< 10 nM	CCc1c(F)ccc2cc(O)cc(-c3ncc4c(N5CCCOCC5)nc(OC[C@]56CCCN5[C@H](COC(=O)N5CCC(CN7CCC(c8ccc9c(c8)n(C)c(=O)n9C8CCC(=O)NC8=O)CC7)CC5)CC6)nc4c3F)c12 (stereo partly drawn) [Compound 423, ((3S,7aR)-7a-(((7-(8-ethyl-7-fluoro-3-hydroxynaphthalen-1-yl)-8-fluoro-4-(1,4-oxazepan-4-yl)pyrido[4,3-d]pyrimidin-2-yl)oxy)methyl)hexahydro-1H-pyrrolizin-3-yl)methyl 4-((4-(1-(2,6-dioxopiperidin-3-yl)-3-methyl-2-oxo-2,3-dihydro-1H-benzo[d]imidazol-5-yl)piperidin-1-yl)methyl)piperidine-1-carboxylate]
< 100 nM	< 1 nM	< 10 nM	CCc1c(F)ccc2cc(O)cc(-c3ccc4c(N5CCC[C@@](C)(O)C5)nc(OC[C@@]56CCCN5[C@H](COC(=O)N5CCC(CN7CCC(c8cc9c(cc8F)n(C8CCC(=O)NC8=O)c(=O)n9C)CC7)CC5)CC6)nc4c3F)c12 (stereo partly drawn) [Compound 424, ((3S,7aS)-7a-(((7-(8-ethyl-7-fluoro-3-hydroxynaphthalen-1-yl)-8-fluoro-4-((R)-3-hydroxy-3-methylpiperidin-1-yl)quinazolin-2-yl)oxy)methyl)hexahydro-1H-pyrrolizin-3-yl)methyl 4-((4-(1-(2,6-dioxopiperidin-3-yl)-6-fluoro-3-methyl-2-oxo-2,3-dihydro-1H-benzo[d]imidazol-5-yl)piperidin-1-yl)methyl)piperidine-1-carboxylate]
< 100 nM	< 1 nM	< 10 nM	CCc1c(F)ccc2cc(O)cc(-c3ncc4c(N5CCC[C@@](C)(O)C5)nc(OC[C@]56CCCN5[C@@H](COC(=O)N5CCC(CN7CCC(c8cc9c(cc8F)n(C8CCC(=O)NC8=O)c(=O)n9C)CC7)CC5)CC6)nc4c3F)c12 (stereo partly drawn) [Compound 425, ((3R,7aR)-7a-(((7-(8-ethyl-7-fluoro-3-hydroxynaphthalen-1-yl)-8-fluoro-4-((R)-3-hydroxy-3-methylpiperidin-1-yl)pyrido[4,3-d]pyrimidin-2-yl)oxy)methyl)hexahydro-1H-pyrrolizin-3-yl)methyl 4-((4-(1-(2,6-dioxopiperidin-3-yl)-6-fluoro-3-methyl-2-oxo-2,3-dihydro-1H-benzo[d]imidazol-5-yl)piperidin-1-yl)methyl)piperidine-1-carboxylate]
< 100 nM	< 1 nM	10 to 100 nM	CCc1c(F)ccc2cc(O)cc(-c3ncc4c(N5CCC[C@@](C)(O)C5)nc(OC[C@@]56CCCN5[C@@H](COC(=O)N5CCC(CN7CCC(c8cc9c(cc8F)n(C8CCC(=O)NC8=O)c(=O)n9C)CC7)CC5)CC6)nc4c3F)c12 (stereo partly drawn) [Compound 426, ((3R,7aS)-7a-(((7-(8-ethyl-7-fluoro-3-hydroxynaphthalen-1-yl)-8-fluoro-4-((R)-3-hydroxy-3-methylpiperidin-1-yl)pyrido[4,3-d]pyrimidin-2-yl)oxy)methyl)hexahydro-1H-pyrrolizin-3-yl)methyl 4-((4-(1-(2,6-dioxopiperidin-3-yl)-6-fluoro-3-methyl-2-oxo-2,3-dihydro-1H-benzo[d]imidazol-5-yl)piperidin-1-yl)methyl)piperidine-1-carboxylate]
< 100 nM	≥ 10 nM	10 to 100 nM	CCc1c(F)ccc2cc(O)cc(-c3ncc4c(N5CCC[C@@](C)(O)C5)nc(OC[C@@]56CCCN5[C@H](COC(=O)NC5CCN(C7CCN(c8ccc9c(c8)n(C)c(=O)n9C8CCC(=O)NC8=O)CC7)CC5)CC6)nc4c3F)c12 (stereo partly drawn) [Compound 427, ((3S,7aS)-7a-(((7-(8-ethyl-7-fluoro-3-hydroxynaphthalen-1-yl)-8-fluoro-4-((R)-3-hydroxy-3-methylpiperidin-1-yl)pyrido[4,3-d]pyrimidin-2-yl)oxy)methyl)hexahydro-1H-pyrrolizin-3-yl)methyl (1′-(1-(2,6-dioxopiperidin-3-yl)-3-methyl-2-oxo-2,3-dihydro-1H-benzo[d]imidazol-5-yl)-[1,4′-bipiperidin]-4-yl)carbamate]
